In brackets after ≈: the same amount, converted by molar mass. Activity calls are given as the source filed them. The calls are words filed in the database; no cut-off is given here.
How the values were obtained:
[1] = Inhibition of PKC
[2] = system: MCF; assay: Cytotoxicity against human MCF cells; type: functional, cell-based

For `COc1cc(/C=C/C(=O)OC[C@H]2O[C@@H](O[C@]3(COC(=O)/C=C/c4ccc(OC(C)=O)cc4)O[C@H](COC(=O)/C=C/c4ccc(OC(C)=O)cc4)[C@@H](OC(C)=O)[C@@H]3OC(=O)/C=C/c3ccc(OC(C)=O)cc3)[C@H](OC(C)=O)[C@@H](OC(C)=O)[C@@H]2OC(C)=O)ccc1OC(C)=O`, which IC50 [1] is on record?
The IC50 was greater than 50 µg/mL.

Which Activity [2] does the source give for `COc1cc(/C=C/C(=O)OC[C@H]2O[C@@H](O[C@]3(COC(=O)/C=C/c4ccc(O)cc4)O[C@H](COC(=O)/C=C/c4ccc(O)cc4)[C@@H](O)[C@@H]3OC(=O)/C=C/c3ccc(O)cc3)[C@H](OC(C)=O)[C@@H](O)[C@@H]2O)ccc1O` [VANICOSIDE A] here?
The Activity was “Active”.

And the IC50 [1]?
The IC50 was 44 µg/mL (≈ 44 µM).

With `COc1cc(/C=C/C(=O)OC[C@H]2O[C@H](O[C@]3(COC(=O)/C=C/c4ccc(O)cc4)O[C@H](COC(=O)/C=C/c4ccc(O)cc4)[C@@H](O)[C@@H]3OC(=O)/C=C/c3ccc(O)cc3)[C@H](O)[C@@H](O)[C@@H]2O)ccc1O` [VANICOSIDE B] as the molecule, how does the Activity [2] read?
Its Activity is “Active”.

And the IC50 [1]?
The IC50 was 31 µg/mL (≈ 32.4 µM).
